Experiments:
Sirt1 = biological target: T1, Sirt1 (Mus musculus, UniProt Q923E4); experiment: gel-filtration (spin column) binding with [γ-32P]ATP; also ATP-agarose pull-down with free ATP competition, and enzyme inhibition
T1 construct: full-length recombinant Sirt1
T1 sequence (Q923E4 2-737): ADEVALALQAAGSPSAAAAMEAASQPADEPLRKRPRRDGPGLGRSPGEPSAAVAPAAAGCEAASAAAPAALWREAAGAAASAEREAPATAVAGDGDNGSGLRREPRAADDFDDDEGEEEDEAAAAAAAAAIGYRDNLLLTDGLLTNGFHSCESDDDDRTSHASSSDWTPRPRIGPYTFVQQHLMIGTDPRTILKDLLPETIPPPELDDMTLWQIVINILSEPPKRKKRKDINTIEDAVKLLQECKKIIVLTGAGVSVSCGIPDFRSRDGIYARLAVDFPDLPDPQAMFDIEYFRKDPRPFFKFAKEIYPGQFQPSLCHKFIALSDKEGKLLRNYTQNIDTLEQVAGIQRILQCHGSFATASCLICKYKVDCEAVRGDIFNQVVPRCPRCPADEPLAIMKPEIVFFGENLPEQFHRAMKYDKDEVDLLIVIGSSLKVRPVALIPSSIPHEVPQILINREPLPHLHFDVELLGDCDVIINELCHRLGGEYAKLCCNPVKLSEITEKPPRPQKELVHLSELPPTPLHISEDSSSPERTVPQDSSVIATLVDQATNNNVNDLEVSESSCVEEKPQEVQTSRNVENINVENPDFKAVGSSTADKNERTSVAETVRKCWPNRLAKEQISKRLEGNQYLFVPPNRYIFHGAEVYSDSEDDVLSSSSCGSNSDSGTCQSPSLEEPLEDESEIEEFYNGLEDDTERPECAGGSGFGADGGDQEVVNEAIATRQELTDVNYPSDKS

2A Sirt1 = biological target: T2, 2A Sirt1 (Mus musculus, UniProt Q923E4, S649A/S651A); experiment: deacetylation of [3H]Ac-H4, inhibition kinetics (Kii); weakened ATP-agarose binding; assay type: biochemical
T2 construct: full-length recombinant 2A Sirt1
T2 sequence (Q923E4 1-737 S649A/S651A): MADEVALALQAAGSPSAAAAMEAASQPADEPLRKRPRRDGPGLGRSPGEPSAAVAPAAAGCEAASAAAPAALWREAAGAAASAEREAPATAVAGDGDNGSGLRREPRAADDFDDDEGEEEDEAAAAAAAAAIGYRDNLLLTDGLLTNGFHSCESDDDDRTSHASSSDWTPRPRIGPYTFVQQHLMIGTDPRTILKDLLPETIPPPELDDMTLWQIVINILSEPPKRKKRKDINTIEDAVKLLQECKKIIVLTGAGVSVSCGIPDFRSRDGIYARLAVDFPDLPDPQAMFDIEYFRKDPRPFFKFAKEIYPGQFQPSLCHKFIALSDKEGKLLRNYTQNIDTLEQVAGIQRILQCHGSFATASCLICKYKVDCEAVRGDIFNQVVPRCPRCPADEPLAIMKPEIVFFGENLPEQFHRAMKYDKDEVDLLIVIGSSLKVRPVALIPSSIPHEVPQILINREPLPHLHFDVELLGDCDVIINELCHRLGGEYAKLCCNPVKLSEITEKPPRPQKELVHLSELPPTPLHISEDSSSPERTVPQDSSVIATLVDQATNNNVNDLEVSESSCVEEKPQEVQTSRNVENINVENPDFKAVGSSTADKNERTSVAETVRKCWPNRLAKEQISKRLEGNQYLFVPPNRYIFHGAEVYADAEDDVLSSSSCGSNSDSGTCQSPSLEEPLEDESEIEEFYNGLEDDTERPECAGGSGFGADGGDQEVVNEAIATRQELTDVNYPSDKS

SMILES: Nc1ncnc2c1ncn2[C@@H]1O[C@H](COP(=O)(O)OP(=O)(O)OP(=O)(O)O)[C@@H](O)[C@H]1O [ATP]
- Kd (Sirt1): ~4.6 mM
- Ki (2A Sirt1): 6.45 ± 0.51 mM

— publication PMC5440690, “Sirt1 carboxyl-domain is an ATP-repressible domain that is transferrable to other proteins” (Nature Communications, 2017)
